Measurements reported in US20160235752A1, “COMPOSITIONS, METHODS OF USE, AND METHODS OF TREATMENT” (THE UNIVERSITY OF NEW ORLEANS, priority 2013, published 2016).
≈ marks a conversion by molar mass, not a printed value.

Tests used:
[1] = tested on: Candida albicans (ATCC no. 10231); test: MIC determination by broth microdilution (NCCLS), visual scoring; format: cell-based; details: for MIC80: Candida albicans, ATCC10231, read-out: MIC80 C. albicans
How it was run: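 NCCLS broth microdilution in RPMI 1640 with 10 mM HEPES, final compound 0.5–128 μg/mL, DMSO ≤1%. Inoculum from 0.5 McFarland stock diluted 1:50; incubated 35 °C for 48–72 h. MIC scored visually as lowest concentration giving ~80% growth reduction versus drug-free wells.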

[2] = tested on: Vero cells (African green monkey kidney cells-ATCC no. CRL-1651); test: In vitro mammalian cell toxicity (Promega CellTiter 96, MTT); format: cell-based; details: cells from the kidney origin; 24 hours; concentration not given
Protocol: Finally, in vitro mammalian cell toxicity studies were done using both mammalian kidney cells and human liver cells (Vero (kidney) cells-ATCC no. CRL-1651 and Hep G2 (liver) ATCC no. HB-8065) on all derivatives that had antifungal activity of less than 8 μg/mL. Cytotoxicity studies were performed in accordance with Promega CellTiter 96 Non-RadioactivCell Proliferation Assay (cat # G4000). The data is presented as the percent cells that remain viable, compared to the negative control, which was set to 100%. BA22, BA23 and BA73 had minimal toxicity in the kidney cells, with over 80% cells viable even at a concentration 10 times higher than the MIC (Table 7).
Cytotoxicity was determined using non-cancerous Vero cells (African green monkey kidney cells-ATCC no. CRL-1651) and Hep G2 (liver) (ATCC no. HB-8065) cells in accordance with Promega CellTiter 96 Non-RadioactivCell Proliferation Assay (cat # G4000). Cells were grown for 24 h at 37° C. and 5% CO2 in a 96-well culture plate. All compounds with MIC≦8 μg/ml were further screened in the MTT assays using both cell types. Compounds that fit these criteria were diluted in media to the testing dilution amounts: the MIC concentration (shown in respective tables; 5×MIC; 10×MIC and 100×MIC. The media used to grow cells was DMEM containing 10% FBS and 2%. Cells were incubated in the presence of the compounds for 24 hours at 37° C. and 5% CO2. Tetrazolium dye solution was added to each well and allowed to incubate for 1-4 h. Stabilization/Stop solution was added and allowed to sit at room temperature for 1 h. Formazan product was scored spectrophotometrically with an automatic plate reader set at 570 nm. 0.1% saponin was used as a positive control. 1% DMSO controls were also used since the compounds were reconstituted in DMSO.

[3] = tested on: Candida glabrata (ATCC no. 48435); test: MIC determination by broth microdilution (NCCLS), visual scoring; format: cell-based; details: for MIC80: Nakaseomyces glabratus, ATCC48435, read-out: MIC80 C. glabrata; for MIC80 C. glabrata: Table 5, Schiff Bases of 5-acylpyrimidinetriones
[4] = tested on: C. glabrata strain CS117.93; test: Testing for respiratory deficiencies: growth in YPD, YPG, YPE; format: cell-based, Candida glabrata
Protocol: (§1) FIGS. 2A and 2B illustrates BA22 activity is enhanced when Candida growth depends upon non-fermentable carbon sources. C. albicans strain SC5314 (FIG. 2A) or C. glabrata strain CS117.93 (FIG. 2B) were grown in medium with 2% glucose (YPD), 3% glycerol (YPG) or 3% ethanol (YPE) at pH 6.5, in dose response experiments with BA22. After 24 hours incubation at 30° C., growth was measured by OD600nm. Growth at each concentration of BA22 is shown as % growth relative to the minus drug (DMSO) control. Data shown is representative of two repeat experiments.
(§2) Considering the significant growth inhibition and lack of overall lack of cytotoxicity of many of the phenylhydrazones, we further explored potential mechanisms of action using the compound BA22 as a representative drug. We initially observed that in the presence of BA22, C. albicans formed small colonies similar to respiration deficient ‘petite’ mutants previously described for Saccharomyces. […] We therefore determined if BA22 affected the ability of C. albicans or C. glabrata to use glycerol or ethanol as carbon sources. […]
(§3) Respiratory deficiencies were examined using YPD (2% glucose), YPE (3% ethanol), or YPG (3% glycerol)^31. […] After 24 and 48 hours incubation at 30° C., growth was quantified by measuring OD600nm using a BioTek plate reader. Growth at each BA concentration was then expressed as % growth vs. the DMSO control of the same medium.

C. albicans = test: Colony formation on agar plates enriched with BA22; format: cell-based, Candida albicans; details: agar plates enriched with a range of BA22 concentrations; data not shown
Text: Considering the significant growth inhibition and lack of overall lack of cytotoxicity of many of the phenylhydrazones, we further explored potential mechanisms of action using the compound BA22 as a representative drug. We initially observed that in the presence of BA22, C. albicans formed small colonies similar to respiration deficient ‘petite’ mutants previously described for Saccharomyces. […] This phenotype somewhat resembles that of respiration deficient ‘petite’ mutants, which are unable to utilize non-fermentable carbon sources such as glycerol and ethanol^30. We therefore determined if BA22 affected the ability of C. albicans or C. glabrata to use glycerol or ethanol as carbon sources. The concentrations of BA22 required to inhibit the growth of either fungi were much lower when glycerol or ethanol is provided as a carbon source versus glucose (FIG. 2). […] Growth inhibition occurred at higher BA22 concentrations in glucose medium, possibly indicating an additional secondary mechanism.

[5] = tested on: C. albicans strain SC5314; test: Testing for respiratory deficiencies: growth in YPD, YPG, YPE; format: cell-based, Candida albicans
Protocol: as §1, §2, §3

[6] = tested on: Candida albicans (ATCC no. 10231) and Candida glabrata (ATCC no 48435); test: Antifungal activity, text statements that do not say which fungus; format: cell-based
Protocol: The antifungal activity of the 2,4,6-pyrimidinetrione analogs shown in Schemes 2-6 were evaluated in vitro using Candida albicans (ATCC no. 10231) and Candida glabrata (ATCC no 48435). All assays were done in accordance with NCCLS reference documents^29. The results of these screenings are summarized in Tables 1-9 as the minimal inhibitory concentrations that inhibited more than 80% fungal growth as compared to the positive controls in 1% DMSO and RPMI media. All MIC screens were done using a visual scoring method as opposed to spectroscopic methods of analysis, due to the physical properties of many of the compounds altering their absorbance spectra relative to the positive, negative and drug controls.
None of the compounds tested over the course of these studies were soluble in water and DMSO was used to dilute each compound tested. Master stock concentrations of all tested compounds were prepared to ensure that the maximum final concentration of DMSO was 1% or less. Subsequent 2-fold serial dilutions were made using sterile water to a final concentration of 1280-5.00 μg/ml. A final 10-fold dilution of each drug was made by aliquotting 0.1 mL of each drug dilution into 0.9 mL of fungal suspension in RPMI 1640 media with 10 mM HEPES buffer added (see methodology below), giving final concentrations tested in the range of 128-0.5 μg/ml.
Antifungal susceptibility studies and minimal inhibitory concentrations (MIC) values for Candida albicans (ATCC no. 10231) and Candida glabrata (ATCC no. 48435) were determined by the broth microdilution technique in accordance with NCCLS reference documents. Microdilution panels ranged from 0.5 to 128 μg/mL. All organisms were subcultured on Sabouraud agar and passaged to ensure purity and viability. The initiating inocula were prepared by picking 5-7 isolated colonies ˜1 mm in diameter from freshly prepared YM agar plates. […] Growth was scored visually. […]

[7] = YPG 3% glycerol or YPE 3% ethanol versus YPD 2% glucose, pH 6.5, 30° C., OD600nm

| SMILES | MIC80 [1] | reduction in cell viability [2] | MIC80 [3] | MIC80 C. glabrata [3] | also measured |
| --- | --- | --- | --- | --- | --- |
| C/C(=N\Nc1ccccc1)C1C(=O)N(C)C(=O)N(C)C1=O [BA78, 1,3-dimethyl-5-[(1E)-1-(2-phenylhydrazinylidene)ethyl]pyrimidine-2,4,6-trione] | 2 µg/mL (≈ 6.94 µM) | ~35% | 2 µg/mL (≈ 6.94 µM) |  |  |
| O=C1NC(=O)C(/C=N/Nc2ccc([N+](=O)[O-])cc2)C(=O)N1 [BA22, 5-{(E)-[2-(4-nitrophenyl)hydrazinylidene]methyl}pyrimidine-2,4,6-trione] | 2 µg/mL (≈ 6.87 µM) |  | 1 µg/mL (≈ 3.43 µM) |  | activity when Candida growth depends upon non-fermentable carbon sources ([4]; FIG. 2B, 24 hours, 30° C., % growth relative to DMSO control): enhanced; concentrations of BA22 required to inhibit the growth, glycerol or ethanol versus glucose [4, 7]: much lower; C. albicans colony formation (C. albicans): significantly delayed in a dose dependent manner, eventually forming small colonies; activity when Candida growth depends upon non-fermentable carbon sources ([5]; FIG. 2A, 24 hours, 30° C., % growth relative to DMSO control): enhanced; concentrations of BA22 required to inhibit the growth, glycerol or ethanol versus glucose [5, 7]: much lower |
| CN1C(=O)C(C=Nc2ccccc2O)C(=O)N(C)C1=O [BA94] |  | ~35% |  | — (none of the 5-acyl-2,4,6-pyrimidinetriones, 5-alkylated pyrimidinetriones or the 5,5-dialkylated pyrimidinetriones showed antifungal activity through 125 μg/mL) | inhibitory activity of Candida albicans ([1]; Schiff base derivatives, Table 5): showed inhibitory activity; MIC80 C. albicans ([1]; Table 5, values marked *: compound displayed MIC with <50% inhibition): 8* μg/mL |
| C/C(=N\Nc1ccc([N+](=O)[O-])cc1)C1C(=O)NC(=O)NC1=O [BA25, 5-{(1E)-1-[2-(4-Nitrophenyl)hydrazinylidene]ethyl}pyrimidine-2,4,6-trione] | 2 µg/mL (≈ 6.55 µM) | ~35% | 2 µg/mL (≈ 6.55 µM) |  |  |
| O=C1NC(=O)C(C=Nc2cccc(O)c2)C(=O)N1 [BA96] |  |  |  | — (none of the 5-acyl-2,4,6-pyrimidinetriones, 5-alkylated pyrimidinetriones or the 5,5-dialkylated pyrimidinetriones showed antifungal activity through 125 μg/mL) | MIC80 C. albicans ([1]; Table 5, Schiff Bases of 5-acylpyrimidinetriones): — (none of the 5-acyl-2,4,6-pyrimidinetriones, 5-alkylated pyrimidinetriones or the 5,5-dialkylated pyrimidinetriones showed antifungal activity through 125 μg/mL); inhibition of fungal growth (in words) [6]: inactive |
